Results: patent US20230348450A1, “CARBOXYLIC ACID-CONTAINING COMPOUNDS AS MODULATORS OF BIS-PHOSPHOGLYCERATE MUTASE FOR THE TREATMENT OF SICKLE CELL DISEASE” (Genzyme Corporation, priority 2020, published 2023)

These molecules were tested against hBPGM (Homo sapiens (Human), UniProt P07738) (assay: BPGM Synthase Assay). Conditions: Table 6 additional results; read-out: huBPGM: synthase Enzyme IC50.
Type: biochemical
Experimental: Example B1. BPGM Synthase Assay
The following materials were used in this assay: deionized water; Bisphosphoglycerate mutase (BPGM; Standard Buffer: 50 mM Tris, 0.01% Tween 20, pH 7.4); BPGM Reaction Buffer (50 mM Tris, 0.01% Tween 20, 3.23 mM KH2PO4, pH 7.4); dithiothreitol (DTT; Stock solution: 100 mM in Standard Buffer); 384-Well Black Assay Plate (Corning, P/N 3575); DMSO; BPGM Stock Solution (500 nM in BPGM Standard Buffer); Glyceraldehyde 3-phosphate dehydrogenase (GAPDH; Stock Solution: 40 U/mL in 20 mM Tris-HCL Buffer with 20% Glycerol, 1 mM EDTA, 1 mM DTT); Glyceraldehyde 3-phosphate (GAP; Stock Solution: 20 mM in BPGM Standard Buffer); 3-PG Stock Solution (500 μM in BPGM Standard Buffer); Nicotinamide adenine dinucleotide (NAD; Stock Solution: 50 mM in BPGM Standard Buffer); Koningic Acid (1 mM Stock in DMSO); Resazurin Stock Solution (10 mM in DMSO); Diaphorase Stock Solution (40 U/mL in BPGM Standard Buffer); DTT Reaction Buffer (1 mM DTT in BPGM Reaction Buffer); Enzyme Solution (5 nM BPGM, 0.4 U/mL GAPDH in DTT Reaction Buffer); GAPDH Solution (0.4 U/mL GAPDH in DTT Reaction Buffer); Substrate Solution (2 mM NAD, 20 μM 3PG, 800 μM GAP in DTT Reaction Buffer); and Resazurin Solution (5 U/mL Diaphorase, 500 μM Resazurin in BPGM Standard Buffer).
To the assay plate was added Enzyme Solution (20 uL) to columns 2-22 and 24 of the assay plate. To columns 1 and 23 was added GAPDH Solution (20 uL). A separate compound plate was prepared at the desired concentrations and all wells were normalized with 5% DMSO. The compound plate was incubated for 30 minutes at RT. Next, the substrate solution (20 μL) was dispensed to all reaction wells and the plate was incubated for 60 minutes at RT. Koningic acid (1 μL) was added and the plate was incubated for 10 minutes at RT. During this time period, the NADH fluorescence was read at ex: 360/em: 460. Next, Resazurin Solution (10 μL) was added to all reaction wells and the plate was incubated for 30 minutes at RT. The resorufin fluorescence was then read at ex:544/em:590.

Chain of hBPGM (P07738 whole entry, looked up): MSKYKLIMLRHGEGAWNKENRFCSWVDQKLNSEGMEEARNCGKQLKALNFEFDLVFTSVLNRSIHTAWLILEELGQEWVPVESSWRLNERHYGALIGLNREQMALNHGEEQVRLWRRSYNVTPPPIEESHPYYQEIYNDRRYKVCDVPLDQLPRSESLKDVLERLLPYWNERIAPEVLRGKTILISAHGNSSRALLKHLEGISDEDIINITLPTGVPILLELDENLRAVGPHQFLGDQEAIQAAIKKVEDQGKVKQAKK

Compared with Cc1nc(CN2CCOCC2=O)sc1-c1cccc(-c2ccc(C(=O)O)c(O)c2)c1 [Example 261], Cc1nc(CN2CCOCC2)sc1-c1cccc(-c2ccc(C(=O)O)c(O)c2)c1 [Example 296] is 5.4-fold lower in IC50: 20 µM for the first, 3.7 µM for the second. The second is the more potent here.

CNC(=O)CCc1nc(C)c(-c2cccc(-c3ccc(C(=O)O)c(O)c3)c2)s1 [Example 264] and Cc1nc(CCC(N)=O)sc1-c1cccc(-c2ccc(C(=O)O)c(O)c2)c1 [Example 265] are within 1.5-fold of each other in IC50: 7 µM for the first, 7.8 µM for the second.

Going from Cc1ccc(C#N)c(OCc2nc(C)c(-c3cccc(-c4ccc(C(=O)O)c(O)c4)c3)s2)n1 [Example 268] to Cc1nc(Cn2c(C)ccc(C#N)c2=O)sc1-c1cccc(-c2ccc(C(=O)O)c(O)c2)c1 [Example 295], the IC50 falls from 1.2 µM to 0.6 µM (2-fold). The second is the more potent here.

Going from Cc1nc(C)c(-c2coc(-c3ccc(C(=O)O)c(O)c3)n2)s1 [Example 271] to Cc1nc(C)c(-c2csc(-c3ccc(C(=O)O)c(O)c3)n2)s1 [Example 315], the IC50 falls from 8 µM to 1.4 µM (5.7-fold).

First: Cc1nc(Cc2ccccn2)sc1-c1cccc(-c2ccc(C(=O)O)cc2)c1 [Example 287]
Second: Cc1nc(Cn2ccccc2=O)sc1-c1cccc(-c2ccc(C(=O)O)c(O)c2)c1 [Example 290]
The IC50 of the first is 2.4-fold lower: 0.91 µM for the first, 2.2 µM for the second.

Going from Cc1nc(C)c(-c2ccn(-c3ccc(C(=O)O)c(O)c3)n2)s1 [Example 288] to Cc1nc(C)c(-c2cccc(-c3ccc(C(=O)O)c(O)c3)n2)s1 [Example 302], the IC50 falls from 3.8 µM to 1.2 µM (3.2-fold).

First: Cc1nc(C)c(-c2csc(-c3ccc(C(=O)O)cc3)n2)s1 [Example 291]
Second: Cc1nc(C)c(-c2cccc(-c3ccc(C(=O)O)cc3)c2F)s1 [Example 297]
The IC50 of the first is 8.5-fold lower: 3.3 µM for the first, 28 µM for the second. The first is the more potent here.

Cc1nc(CC(F)(F)F)sc1-c1cccc(-c2ccc(C(=O)O)c(O)c2)c1 [Example 292] and Cc1nc(Cc2ccc(C(F)(F)F)cc2)sc1-c1cccc(-c2ccc(C(=O)O)c(O)c2)c1 [Example 312] are within 1.5-fold of each other in IC50: 5.8 µM for the first, 6.6 µM for the second.

First: Cc1nc(C)c(-c2cc(-c3ccc(C(=O)O)c(O)c3)ccn2)s1 [Example 293]
Second: Cc1nc(C)c(-c2ccnc(-c3ccc(C(=O)O)c(O)c3)c2)s1 [Example 310]
The IC50 of the first is 4.7-fold higher: 9.3 µM for the first, 2 µM for the second. The second is the more potent here.

First: Cc1nc(C)c(-c2ccc(C#N)c(-c3ccc(C(=O)O)c(O)c3)c2)s1 [Example 294]
Second: Cc1nc(C)c(-c2cncc(-c3ccc(C(=O)O)c(O)c3)c2)s1 [Example 299]
The IC50 of the first is 1.8-fold higher: 44 µM for the first, 25 µM for the second. The second is the more potent here.

Going from Cc1nc(CN2CCCCC2)sc1-c1cccc(-c2ccc(C(=O)O)c(O)c2)c1 [Example 298] to Cc1nc(CC2CCCCC2)sc1-c1cccc(-c2ccc(C(=O)O)c(O)c2)c1 [Example 313], the IC50 rises from 5 µM to 9.1 µM (1.8-fold).

First: Cc1cc(-c2ccc(C(=O)O)cc2)cc(-c2sc(C)nc2C)c1 [Example 300]
Second: Cc1nc(C)c(-c2ccc(C)c(-c3ccc(C(=O)O)cc3)c2)s1 [Example 305]
The IC50 of the first is 2-fold higher: 160 µM for the first, 82 µM for the second. The second is the more potent here.

First: Cc1nc(C)c(-c2cc(-c3ccc(C(=O)O)cc3)ccc2O)s1 [Example 301]
Second: Cc1nc(C)c(-c2ccc(O)c(-c3ccc(C(=O)O)cc3)c2)s1 [Example 304]
The IC50 of the first is higher: > 250 µM for the first, 54 µM for the second. The second is the more potent here.

Cc1ccc(C#N)c(OCCc2cnn(-c3cccc(-c4ccc(C(=O)O)c(O)c4)c3)c2)n1 [Example 303] and Cc1ccc(C#N)c(OCCc2ccn(-c3cccc(-c4ccc(C(=O)O)c(O)c4)c3)n2)n1 [Example 311] are within 1.5-fold of each other in IC50: 17 µM for the first, 21 µM for the second.

Cc1nc(C)c(-c2cccc(-c3ccc(C(=O)O)cc3)c2C)s1 [Example 306] and Cc1nc(C)c(-c2cc(-c3ccc(C(=O)O)cc3)ccc2C)s1 [Example 307] cannot be ordered by IC50: > 250 µM for the first, > 250 µM for the second.

Compared with Cc1nc(Cc2cccc(C#N)c2)sc1-c1cccc(-c2ccc(C(=O)O)c(O)c2)c1 [Example 308], Cc1nc(Cc2cccc(C(F)(F)F)c2)sc1-c1cccc(-c2ccc(C(=O)O)c(O)c2)c1 [Example 317] is 3-fold higher in IC50: 1 µM for the first, 3 µM for the second. The first is the more potent here.

Compared with Cc1nc(C)c(-c2cccc(-c3ccc(C(=O)O)c(C(F)(F)F)c3)c2)s1 [Example 314], Cc1nc(C)c(-c2cccc(-c3ccc(O)c(C(=O)O)c3)c2)s1 [Example 318] is 21-fold lower in IC50: 100 µM for the first, 4.8 µM for the second.
